Results taken from patent US8293781B2, “Indole derivatives having cPLA2 inhibiting activity and applications and production methods of the same” (Daiichi Sankyo Company, Limited, priority 2007, dated 2012).
Structures can show the parent of a compound that is named as a salt.

Tests used:
[1] = target: T1, cPLA2 crudely purified from the cytoplasm fraction of U937 (Homo sapiens, UniProt P47712); assay: Measurement of cPLA2 inhibitory activity (release of [14C]-arachidonic acid from phosphatidyl choline liposome); type: biochemical; details: cPLA2 from U937 cytoplasm fraction, [14C]arachidonyl-phosphatidyl choline liposome, 37° C., 60 minutes; read-out: cPLA2 inhibitory activity, 50% inhibiting concentration IC50
T1 construct: cPLA2 crudely purified from the cytoplasm fraction of U937; endogenous in cells; host or cells: U937 cells (cytoplasm fraction, crude purification)
T1 sequence (P47712 1-749): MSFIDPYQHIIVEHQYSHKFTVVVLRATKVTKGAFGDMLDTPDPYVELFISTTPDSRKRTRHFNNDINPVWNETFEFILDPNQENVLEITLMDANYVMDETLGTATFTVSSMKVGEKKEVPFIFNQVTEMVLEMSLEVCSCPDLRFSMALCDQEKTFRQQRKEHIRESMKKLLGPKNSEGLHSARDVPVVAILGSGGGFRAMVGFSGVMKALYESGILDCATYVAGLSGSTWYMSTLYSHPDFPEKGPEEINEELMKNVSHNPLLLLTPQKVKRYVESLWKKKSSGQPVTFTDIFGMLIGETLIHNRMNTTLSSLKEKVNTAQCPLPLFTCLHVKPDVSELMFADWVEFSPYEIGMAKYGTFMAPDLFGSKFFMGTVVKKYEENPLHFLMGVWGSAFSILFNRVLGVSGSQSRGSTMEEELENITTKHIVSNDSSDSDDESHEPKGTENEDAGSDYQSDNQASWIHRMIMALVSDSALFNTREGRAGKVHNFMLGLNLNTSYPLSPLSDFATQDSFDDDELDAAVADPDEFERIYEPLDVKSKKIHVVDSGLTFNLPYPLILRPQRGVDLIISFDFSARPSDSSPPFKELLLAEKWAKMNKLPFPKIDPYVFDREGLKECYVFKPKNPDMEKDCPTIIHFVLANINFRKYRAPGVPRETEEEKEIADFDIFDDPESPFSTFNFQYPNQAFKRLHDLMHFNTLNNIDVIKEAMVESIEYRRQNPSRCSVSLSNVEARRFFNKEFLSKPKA
Summary of the method: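 The read-out is radioactivity from extracted [14C]-arachidonic acid, freed over 60 min at 37° C from liposomes of 14C-arachidonyl phosphatidylcholine (10 μM PC in the added solution). Buffer was 50 mM HEPES pH 7.5 with Ca2+, DTT, NaCl and BSA. IC50 was derived from inhibition relative to enzyme control minus no-enzyme control.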

[2] = tested on: PGE2 production in mouse peritoneal exudate cells; assay: LPS-induced PGE2 production system using mouse peritoneal exudate cells; type: cell-based; details: LPS 10 μg/ml, 6 hours
Procedure: For evaluation of the PGE2 production inhibiting activity, the lipopolysaccharide (LPS)-induced PGE2 production system using mouse peritoneal exudate cells with reference to the method of Kim et al. (see Kim, Y K et al., Biol Pharm Bull 25: 472, 2002) was used. That is, 2 ml of thioglycolate solution (made by Sigma, Brewer's Thioglycorate medium) per mice were intraperitoneally administered to 8-week old female C3H/HeN mice (Charles River Japan). After 4 days, a phosphate buffer saline (PBS) 5 ml was used to wash the abdominal cavity and the infiltrating cells were recovered. The recovered cells were suspended in a predetermined concentration in an RPMI1640 medium (Nacalai Tesque) containing 10% bovine fetal serum (BioWhittaker) and 10 μg/ml gentamycin (Invitrogen).
The infiltrating cell suspension 100 μl containing 2×10^5 cells per well was inoculated in a 96-well culture plate, then the test compound solution or solvent 50 μl was added. Under conditions of 5% CO2 and 37° C., this was precultured for 15 minutes, then LPS (made by Sigma: L-4524) solution 50 μl (final concentration of LPS of 10 μg/ml) was added, and the mixture was cultured for a further 6 hours. After the end of the culture, the culture supernatant was recovered and the PGE2 concentration in the supernatant was measured using an EIA kit (made by Amersham). Based on the measurement value, the test compound concentration suppressing 50% of the PGE2 production at the time of non-addition of a compound (IC50 value) was calculated.

| IC50 [1] | IC50 [2] | SMILES |
| --- | --- | --- |
| 38 nM | 1320 nM | O=C(O)CCc1ccc2c(c1)c(CCc1ccccc1)cn2-c1ccccc1 [Example 17, 3-[1-phenyl-3-(2-phenylethyl)-1H-indol-5-yl]propanoic acid 2-amino-2-(hydroxymethyl)propane-1,3-diol salt (1:1)] |
| 126 nM | 2490 nM | Cc1c(CCc2ccccc2)c2cc(CCC(=O)O)ccc2n1-c1ccccc1 [Example 48, 3-[2-methyl-1-phenyl-3-(2-phenylethyl)-1H-indol-5-yl]propanoic acid] |
| 740 nM | 2220 nM | CCOc1ccc(-n2cc(CCc3ccccc3)c3cc(CCC(=O)C(F)(F)F)ccc32)cc1 [Example 114, 4-[1-(4-ethoxyphenyl)-3-(2-phenylethyl)-1H-indol-5-yl]-1,1,1-trifluorobutan-2-one] |
| 61 nM | 300 nM | CCOc1ccc(-n2cc(CCc3ccccc3)c3cc(CCC(=O)NC#N)ccc32)cc1 [Example 115, N-cyano-3-[1-(4-ethoxyphenyl)-3-(2-phenylethyl)-1H-indol-5-yl]propanamide] |
| 8 nM | 130 nM | O=C(O)CCc1ccc2c(c1)c(CCc1ccccc1)cn2-c1ccc(OCc2ccccc2)cc1 [Example 124, 3-{1-[4-(benzyloxy)phenyl]-3-(2-phenylethyl)-1H-indol-5-yl}propanoic acid 2-amino-2-(hydroxymethyl)propane-1,3-diol salt (1:1)] |
| 250 nM | 6430 nM | O=C(O)CCc1ccc2c(c1)c(CCc1ccccc1)cn2-c1cccnc1 [Example 128, 3-[3-(2-phenylethyl)-1-(3-pyridinyl)-1H-indol-5-yl]propanoic acid hydrochloride] |
| 34 nM | 580 nM | CN(C)c1ccc(-n2cc(CCc3ccccc3)c3cc(CCC(=O)O)ccc32)nc1 [Example 138, 3-{1-[5-(dimethylamino)-2-pyridinyl]-3-(2-phenylethyl)-1H-indol-5-yl}propanoic acid hydrochloride] |
| 779 nM | 1240 nM | O=C(O)CCc1ccc2c(c1)c(CCc1ccccc1)cn2-c1ccccc1O [Example 147, 3-[1-(2-hydroxyphenyl)-3-(2-phenylethyl)-1H-indol-5-yl]propanoic acid] |
| 186 nM | 2250 nM | O=C(O)CCc1ccc2c(c1)c(CCc1ccccc1)cn2-c1cccc(O)c1 [Example 157, 3-[1-(3-hydroxyphenyl)-3-(2-phenylethyl)-1H-indol-5-yl]propanoic acid] |
| 1630 nM | – | O=C(O)CCc1ccc2c(c1)c(CCc1ccccc1)cn2-c1cccc(S(=O)(=O)N2CCOCC2)c1 [Example 324, 3-{1-[3-(morpholin-4-ylsulfonyl)phenyl]-3-(2-phenylethyl)-1H-indol-5-yl}propanoic acid] |
| 486 nM | – | CS(=O)(=O)c1ccc(-n2cc(CCc3ccccc3)c3cc(CCC(=O)O)ccc32)cc1 [Example 326, 3-{1-[4-(methylsulfonyl)phenyl]-3-(2-phenylethyl)-1H-indol-5-yl}propanoic acid] |
| 57 nM | – | O=C(O)CCc1ccc2c(c1)c(CCc1ccccc1)cn2-c1ccc(OCCCO)cc1 [Example 328, 3-{1-[4-(3-hydroxypropoxy)phenyl]-3-(2-phenylethyl)-1H-indol-5-yl}propanoic acid 2-amino-2-(hydroxymethyl)propane-1,3-diol salt (1:1)] |
| 318 nM | – | O=C(CCc1ccc2c(c1)c(CCc1ccccc1)cn2-c1ccc(OC(F)F)cc1)C(F)(F)F [Example 329, 4-{1-[4-(difluoromethoxy)phenyl]-3-(2-phenylethyl)-1H-indol-5-yl}-1,1,1-trifluorobutan-2-one] |
| 726 nM | – | O=C(CCc1ccc2c(c1)c(CCc1ccccc1)cn2-c1ccc(Oc2ccccc2)cc1)C(F)(F)F [Example 330, 1,1,1-trifluoro-4-[1-(4-phenoxyphenyl)-3-(2-phenylethyl)-1H-indol-5-yl]butan-2-one] |
| > 3000 nM | – | CS(=O)(=O)NC(=O)CCc1ccc2c(c1)c(CCc1ccccc1)cn2-c1ccc(Oc2ccccc2)cc1 [Example 331, N-(methylsulfonyl)-3-[1-(4-phenoxyphenyl)-3-(2-phenylethyl)-1H-indol-5-yl]propanamide] |
| > 3000 nM | – | O=C(CCc1ccc2c(c1)c(CCc1ccccc1)cn2-c1ccc(OC(F)F)cc1)NS(=O)(=O)c1ccccc1 [Example 332, 3-{1-[4-(difluoromethoxy)phenyl]-3-(2-phenylethyl)-1H-indol-5-yl}-N-(phenylsulfonyl)propanamide] |
| > 3000 nM | – | Cc1ccc(S(=O)(=O)NC(=O)CCc2ccc3c(c2)c(CCc2ccccc2)cn3-c2ccc(Oc3ccccc3)cc2)cc1 [Example 333] |
| 11 nM | – | CSc1ccc(-n2cc(CCc3ccccc3)c3cc(CCC(=O)O)ccc32)cc1 [Example 334, 3-[1-(4-methylthiophenyl)-3-(2-phenylethyl)-1H-indol-5-yl]propanoic acid] |
| 9 nM | – | O=C(O)CCc1ccc2c(c1)c(CCc1ccccc1)cn2-c1ccc(SCc2ccccc2)cc1 [Example 335, 3-[1-(4-benzylthiophenyl)-3-(2-phenylethyl)-1H-indol-5-yl]propanoic acid] |
| 460 nM | – | O=C(O)CCc1ccc2c(c1)c(CCCc1ccccc1)cn2-c1ccc(OCc2ccccc2)cc1 [Example 339, 3-{1-[4-(benzyloxy)phenyl]-3-(3-phenylpropyl)-1H-indol-5-yl}propanoic acid] |
| 568 nM | – | O=C(O)CCc1ccc2c(c1)c(CCCc1ccccc1)cn2-c1ccc(O)cc1 [Example 340, 3-[1-(4-hydroxyphenyl)-3-(3-phenylpropyl)-1H-indol-5-yl]propanoic acid] |
| 2 nM | – | O=C(O)CCc1ccc2c(c1)c(CCc1ccccc1)cn2-c1ccc(OCCOCc2ccccc2)cc1 [Example 342, 3-[1-{4-[2-(benzyloxy)ethoxy]phenyl}-3-(2-phenylethyl)-1H-indol-5-yl]propanoic acid] |
